Test results: patent US20130236441A1, “METHODS OF TREATING AND PREVENTING THROMBOTIC DISEASES USING ASK1 INHIBITORS” (University of Delaware, priority 2010, published 2013)

Tests used:
[1] = test system: WT or Ask1−/− mouse platelets; test: 14C-serotonin release (dense granule secretion) from agonist-stimulated mouse platelets; assay type: cell-based; conditions: aspirin pretreatment
Procedure: (A) ^14C-serotonin-labeled platelets (2.5×10^8 per ml) from Ask1^+/+ and Ask1^−/− mice were stimulated with various concentration of thrombin for 5 min, and the ^14C-serotonin release was determined using a liquid scintillation counter. (B) Platelets from Ask1^+/+ and Ask1^−/− mice were stimulated with various concentrations of thrombin for 5 min and P-selectin exposure on the platelet surface was determined using flow cytometry. Granular secretion was assessed using WT or Ask1−/− mouse platelets in response to low and high dose of agonists such as thrombin (FIG. 7A) and thrombin/PAR4-peptide (AYPGKF) (FIG. 7B). Dense granule secretion was analyzed by measuring ^14C-serotonin release (FIG. 7A). α-granule secretion was assessed by P-selectin exposure using flow cytometry (FIG. 7B). Ask1 regulated a significant portion of dense granule secretion induced by high dose of thrombin (FIG. 7A). Similar results were obtained when P-selectin exposure was assessed as a measure of α-granule secretion (FIG. 7B).

ASK1 = ASK1 T838 phosphorylation in thrombin-stimulated washed human platelets (Western blot); assay type: cell-based; conditions: thrombin 0.05 U-1 U/ml
Procedure: Washed human platelets (2×10^8) were stimulated with thrombin (1 U/ml) for various time periods as indicated, and the lysates were Western blotted using phospho-specific antibodies against (A) ASK1, (B) MKK3 and P38, and (C) MKK4, and reprobed with corresponding antibodies against total proteins (Cell Signaling Technology, Inc.) to ensure relatively equal loading of ASK1, MKK3, P38 or MKK4 protein in each of its respective lanes.
A study was carried out to determine whether ASK1 was activated during agonist-induced platelet stimulation. A well-characterized antibody specific to the phosphorylated threonine 838 (T838) of ASK1 was used. […] Upon stimulation with as low as 0.05 U-1 U/ml of thrombin, ASK1 was activated rapidly and transiently as evidenced by phosphorylation of T838 (FIG. 3A). In a low percentage SDS-PAGE, ASK1 appeared as a doublet.

Row | Molecule | amount of serotonin released ([1]; Ask1−/− platelets) | amount of serotonin released ([1]; WT platelets) | ASK1 activation (phosphorylation of T838) (ASK1)
1 | CC(=O)Oc1ccccc1C(=O)O [aspirin] | no effect | reduced the amount of serotonin released to that of Ask1−/− platelets | –
2 | thrombin | – | – | dose-dependently activated
